Data as given in ChEMBL document CHEMBL1125650, “Relationships between the structure of taxol analogues and their antimitotic activity” (J Med Chem, 1991).
In brackets after ≈: the same amount, converted by molar mass.

Experiments:
[1] = organism: Sus scrofa; experiment: Ratio of the concentration leading to a 50% inhibition of the rate of pig brain microtubule disassembly to that of taxol (0.4 uM) was determined; format: functional
[2] = Ratio of the concentration of compound leading to a 50% inhibition of the rate of pig brain microtubule disassembly to that of compound 13a was determined; format: functional
[3] = system: P388; experiment: The concentration required to 50% inhibition of the P388 leukemic cell proliferation; format: functional, cell-based; settings: Mus musculus
[4] = Cytotoxicity was measured as ratio of its IC50 value to that of compound 13a; format: functional

Structure (SMILES)	Ratio [1]	Ratio [2]	IC50 [3]	Ratio [4]
CC(=O)O[C@H]1C(=O)[C@@]2(C)[C@H]([C@H](OC(=O)c3ccccc3)[C@]3(O)C[C@H](OC(=O)[C@@H](NC(=O)c4ccccc4)[C@H](O)c4ccccc4)C(C)=C1C3(C)C)[C@]1(OC(C)=O)CO[C@@H]1C[C@@H]2O	110	–	–	–
CC(=O)O[C@@]12CO[C@@H]1C[C@H](O)[C@@]1(C)C(=O)[C@H](O)C3=C(C)[C@@H](OC(=O)C(O)Cc4ccccc4)C[C@@](O)([C@@H](OC(=O)c4ccccc4)[C@H]21)C3(C)C (stereo partly specified)	4.5	–	–	–
CC(=O)O[C@@]12CO[C@@H]1C[C@H](O)[C@@]1(C)C(=O)[C@H](O)C3=C(C)[C@@H](OC(=O)CCc4ccccc4)C[C@@](O)([C@@H](OC(=O)c4ccccc4)[C@H]21)C3(C)C	17	–	–	–
CC(=O)O[C@@]12CO[C@@H]1C[C@H](O)[C@@]1(C)C(=O)[C@H](O)C3=C(C)[C@@H](OC(=O)[C@@H](O)[C@H](NC(=O)OC(C)(C)C)c4ccccc4)C[C@@](O)([C@@H](OC(=O)c4ccccc4)[C@H]21)C3(C)C	30	60	> 10 µg/mL	>77
CC(=O)O[C@@]12CO[C@@H]1C[C@H](O)[C@@]1(C)C(=O)[C@H](O)C3=C(C)[C@@H](OC(=O)C(O)C(NC(=O)CCCC(=O)O)c4ccccc4)C[C@@](O)([C@@H](OC(=O)c4ccccc4)[C@H]21)C3(C)C (stereo partly specified)	1	–	–	–
CC(=O)O[C@H]1C(=O)[C@@]2(C)[C@H]([C@H](OC(=O)c3ccccc3)[C@]3(O)C[C@H](OC(=O)[C@H](O)[C@@H](NC(=O)c4ccccc4)c4ccccc4)C(C)=C1C3(C)C)[C@]1(OC(C)=O)CO[C@@H]1C[C@@H]2O [PACLITAXEL]	–	2	0.27 µg/mL (≈ 0.316 µM)	–
CC(=O)O[C@@]12CO[C@@H]1C[C@H](O)[C@@]1(C)C(=O)[C@H](O)C3=C(C)[C@@H](OC(=O)C(O)C(NC(=O)OC(C)(C)C)c4ccccc4)C[C@@](O)([C@@H](OC(=O)c4ccccc4)[C@H]21)C3(C)C (stereo in doubt; 13f)	4.3	–	–	–
CC(=O)O[C@H]1C(=O)[C@@]2(C)[C@H]([C@H](OC(=O)c3ccccc3)[C@]3(O)C[C@H](OC(=O)C(O)C(C)O)C(C)=C1C3(C)C)[C@]1(OC(C)=O)CO[C@@H]1C[C@@H]2O (stereo partly specified)	60	–	–	–
CC(=O)O[C@@]12CO[C@@H]1C[C@H](O)[C@@]1(C)C(=O)[C@H](O)C3=C(C)[C@@H](OC(=O)/C=C/c4ccccc4)C[C@@](O)([C@@H](OC(=O)c4ccccc4)[C@H]21)C3(C)C	23	–	–	–
CC(=O)O[C@@]12CO[C@@H]1C[C@H](O)[C@@]1(C)C(=O)[C@H](O)C3=C(C)[C@@H](OC(=O)[C@H](O)[C@@H](NS(=O)(=O)c4ccc(C)cc4)c4ccccc4)C[C@@](O)([C@@H](OC(=O)c4ccccc4)[C@H]21)C3(C)C	5	–	–	–
CC(=O)O[C@@]12CO[C@@H]1C[C@H](OC(=O)C(N)Cc1ccccc1)[C@@]1(C)C(=O)[C@H](O)C3=C(C)[C@@H](OC(=O)C(O)C(NC(=O)OC(C)(C)C)c4ccccc4)C[C@@](O)([C@@H](OC(=O)c4ccccc4)[C@H]21)C3(C)C (stereo partly specified)	1	2	0.12 µg/mL (≈ 0.126 µM)	1
CC(=O)O[C@@]12CO[C@@H]1C[C@H](O)[C@@]1(C)C(=O)[C@H](O)C3=C(C)[C@@H](OC(=O)C(O)C(NC(=O)c4ccccc4)c4ccccc4)C[C@@](O)([C@@H](OC(=O)c4ccccc4)[C@H]21)C3(C)C (stereo partly specified)	1.3	–	–	–
CC(=O)O[C@@]12CO[C@@H]1C[C@H](O)[C@@]1(C)C(=O)[C@H](O)C3=C(C)[C@@H](OC(=O)C(O)C(NC(=O)OC(C)(C)C)c4ccccc4)C[C@@](O)([C@@H](OC(=O)c4ccccc4)[C@H]21)C3(C)C (stereo in doubt; 13e)	1.8	–	–	–
CC(=O)O[C@@]12CO[C@@H]1C[C@H](OC(=O)CCCC(=O)O)[C@@]1(C)C(=O)[C@H](OC(=O)CCCC(=O)O)C3=C(C)[C@@H](OC(=O)C(O)C(NC(=O)OC(C)(C)C)c4ccccc4)C[C@@](O)([C@@H](OC(=O)c4ccccc4)[C@H]21)C3(C)C (stereo partly specified)	2	–	–	–
CC(=O)O[C@H]1C(=O)[C@@]2(C)[C@H]([C@H](OC(=O)c3ccccc3)[C@]3(O)C[C@H](OC(=O)C(NC(=O)OC(C)(C)C)C(O)c4ccccc4)C(C)=C1C3(C)C)[C@]1(OC(C)=O)CO[C@@H]1C[C@@H]2O (stereo in doubt; 16c)	10	–	–	–
CC(=O)O[C@@]12CO[C@@H]1C[C@H](O)[C@@]1(C)C(=O)[C@H](O)C3=C(C)[C@@H](OC(=O)C(O)C(N)c4ccccc4)C[C@@](O)([C@@H](OC(=O)c4ccccc4)[C@H]21)C3(C)C (stereo partly specified)	30	–	–	–
CC(=O)O[C@@]12CO[C@@H]1C[C@H](O)[C@@]1(C)C(=O)[C@H](O)C3=C(C)[C@@H](OC(=O)[C@H](O)[C@@H](NC(=O)OC(C)(C)C)c4ccccc4)C[C@@](O)([C@@H](OC(=O)c4ccccc4)[C@H]21)C3(C)C.O.O.O [DOCETAXEL]	0.5	1	0.13 µg/mL	1
CC(=O)O[C@@]12CO[C@@H]1C[C@H](O)[C@@]1(C)C(=O)[C@H](O)C3=C(C)[C@@H](OC(=O)C(NC(=O)c4ccccc4)C(O)c4ccccc4)C[C@@](O)([C@@H](OC(=O)c4ccccc4)[C@H]21)C3(C)C (stereo in doubt; 14d)	170	–	–	–

Structure (SMILES)	Ratio [1]	Ratio [2]	IC50 [3]	Ratio [4]
CC(=O)O[C@@]12CO[C@@H]1C[C@H](O)[C@@]1(C)C(=O)[C@H](O)C3=C(C)[C@@H](OC(=O)[C@H](NC(=O)OC(C)(C)C)[C@@H](O)c4ccccc4)C[C@@](O)([C@@H](OC(=O)c4ccccc4)[C@H]21)C3(C)C	160	–	–	–
CC(=O)O[C@@]12CO[C@@H]1C[C@H](O)[C@@]1(C)C(=O)[C@H](O)C3=C(C)[C@@H](OC(=O)[C@@H](O)[C@H](NC(=O)c4ccccc4)c4ccccc4)C[C@@](O)([C@@H](OC(=O)c4ccccc4)[C@H]21)C3(C)C	4	–	–	–
CC(=O)O[C@@]12CO[C@@H]1C[C@H](O)[C@@]1(C)C(=O)[C@H](O)C3=C(C)[C@@H](OC(=O)[C@H](O)[C@@H](NC(=O)c4ccccc4)c4ccccc4)C[C@@](O)([C@@H](OC(=O)c4ccccc4)[C@H]21)C3(C)C	1.3	–	–	–
CC(=O)O[C@H]1C(=O)[C@@]2(C)[C@H]([C@H](OC(=O)c3ccccc3)[C@]3(O)C[C@H](OC(=O)C(O)C(N)c4ccccc4)C(C)=C1C3(C)C)[C@]1(OC(C)=O)CO[C@@H]1C[C@@H]2O (stereo partly specified)	44	–	–	–
CC(=O)O[C@H]1C(=O)[C@@]2(C)[C@H]([C@H](OC(=O)c3ccccc3)[C@]3(O)C[C@H](OC(=O)[C@H](NC(=O)c4ccccc4)[C@@H](O)c4ccccc4)C(C)=C1C3(C)C)[C@]1(OC(C)=O)CO[C@@H]1C[C@@H]2O	10	20	6 µg/mL (≈ 7.03 µM)	46
CC(=O)O[C@@]12CO[C@@H]1C[C@H](O)[C@@]1(C)C(=O)[C@H](O)C3=C(C)[C@@H](OC(=O)C(NC(=O)OC(C)(C)C)C(O)c4ccccc4)C[C@@](O)([C@@H](OC(=O)c4ccccc4)[C@H]21)C3(C)C (stereo partly specified)	10	20	4 µg/mL (≈ 4.95 µM)	31
CC(=O)O[C@@]12CO[C@@H]1C[C@H](O)[C@@]1(C)C(=O)[C@H](O)C3=C(C)[C@@H](OC(=O)C(O)C(O)c4ccccc4)C[C@@](O)([C@@H](OC(=O)c4ccccc4)[C@H]21)C3(C)C (stereo partly specified)	3	–	–	–
CC(=O)O[C@@]12CO[C@@H]1C[C@H](O)[C@@]1(C)C(=O)[C@H](O)C3=C(C)[C@@H](OC(=O)CC(NC(=O)OC(C)(C)C)c4ccccc4)C[C@@](O)([C@@H](OC(=O)c4ccccc4)[C@H]21)C3(C)C (single isomer, unassigned; 10b)	4.1	–	–	–
CC(=O)O[C@H]1C(=O)[C@@]2(C)[C@H]([C@H](OC(=O)c3ccccc3)[C@]3(O)C[C@H](OC(=O)C(NC(=O)OC(C)(C)C)C(O)c4ccccc4)C(C)=C1C3(C)C)[C@]1(OC(C)=O)CO[C@@H]1C[C@@H]2O (stereo in doubt; 16d)	108	–	–	–
CC(=O)O[C@@]12CO[C@@H]1C[C@H](O)[C@@]1(C)C(=O)[C@H](O)C3=C(C)[C@@H](OC(=O)C(NS(=O)(=O)c4ccc(C)cc4)C(O)c4ccccc4)C[C@@](O)([C@@H](OC(=O)c4ccccc4)[C@H]21)C3(C)C (stereo partly specified)	15	–	–	–
CC(=O)O[C@@]12CO[C@@H]1C[C@H](O)[C@@]1(C)C(=O)[C@H](O)C3=C(C)[C@@H](OC(=O)[C@@H](O)Cc4ccccc4)C[C@@](O)([C@@H](OC(=O)c4ccccc4)[C@H]21)C3(C)C	3.5	–	–	–
CC(=O)O[C@@]12CO[C@@H]1C[C@H](O)[C@@]1(C)C(=O)[C@H](O)C3=C(C)[C@@H](OC(=O)CC(NC(=O)OC(C)(C)C)c4ccccc4)C[C@@](O)([C@@H](OC(=O)c4ccccc4)[C@H]21)C3(C)C (single isomer, unassigned; 10a)	2.3	–	–	–
C/C=C/C(=O)O[C@H]1C[C@@]2(O)[C@@H](OC(=O)c3ccccc3)[C@@H]3[C@]4(OC(C)=O)CO[C@@H]4C[C@H](O)[C@@]3(C)C(=O)[C@H](OC(C)=O)C(=C1C)C2(C)C	100	–	–	–
CC(=O)O[C@H]1C(=O)[C@]2(C)[C@@H](OC(=O)CCCC(=O)O)C[C@H]3OC[C@@]3(OC(C)=O)[C@H]2[C@H](OC(=O)c2ccccc2)[C@]2(O)C[C@H](OC(=O)C(O)C(NC(=O)c3ccccc3)c3ccccc3)C(C)=C1C2(C)C (stereo partly specified)	1	–	–	–
CC(=O)O[C@@]12CO[C@@H]1C[C@H](OC(=O)OCC(Cl)(Cl)Cl)[C@@]1(C)C(=O)[C@H](OC(=O)OCC(Cl)(Cl)Cl)C3=C(C)[C@@H](OC(=O)/C=C/c4ccccc4)C[C@@](O)([C@@H](OC(=O)c4ccccc4)[C@H]21)C3(C)C	1000	–	–	–
CC(=O)O[C@@]12CO[C@@H]1C[C@H](O)[C@@]1(C)C(=O)[C@H](O)C3=C(C)[C@@H](OC(=O)C(NC(=O)c4ccccc4)C(O)c4ccccc4)C[C@@](O)([C@@H](OC(=O)c4ccccc4)[C@H]21)C3(C)C (stereo in doubt; 14c)	10	–	–	–
CC(=O)O[C@H]1C(=O)[C@@]2(C)[C@H]([C@H](OC(=O)c3ccccc3)[C@]3(O)C[C@H](OC(=O)[C@@H](O)[C@H](NC(=O)OC(C)(C)C)c4ccccc4)C(C)=C1C3(C)C)[C@]1(OC(C)=O)CO[C@@H]1C[C@@H]2O	30	–	–	–
